Experimental findings from BindingDB's records for doi:10.1021/acs.jmedchem.7b00306 (Bayer, 2017) are described below.

This experiment concerns the target T1, Bromodomain-containing protein 1 (Homo sapiens, UniProt O95696).
T1 sequence (O95696 whole entry): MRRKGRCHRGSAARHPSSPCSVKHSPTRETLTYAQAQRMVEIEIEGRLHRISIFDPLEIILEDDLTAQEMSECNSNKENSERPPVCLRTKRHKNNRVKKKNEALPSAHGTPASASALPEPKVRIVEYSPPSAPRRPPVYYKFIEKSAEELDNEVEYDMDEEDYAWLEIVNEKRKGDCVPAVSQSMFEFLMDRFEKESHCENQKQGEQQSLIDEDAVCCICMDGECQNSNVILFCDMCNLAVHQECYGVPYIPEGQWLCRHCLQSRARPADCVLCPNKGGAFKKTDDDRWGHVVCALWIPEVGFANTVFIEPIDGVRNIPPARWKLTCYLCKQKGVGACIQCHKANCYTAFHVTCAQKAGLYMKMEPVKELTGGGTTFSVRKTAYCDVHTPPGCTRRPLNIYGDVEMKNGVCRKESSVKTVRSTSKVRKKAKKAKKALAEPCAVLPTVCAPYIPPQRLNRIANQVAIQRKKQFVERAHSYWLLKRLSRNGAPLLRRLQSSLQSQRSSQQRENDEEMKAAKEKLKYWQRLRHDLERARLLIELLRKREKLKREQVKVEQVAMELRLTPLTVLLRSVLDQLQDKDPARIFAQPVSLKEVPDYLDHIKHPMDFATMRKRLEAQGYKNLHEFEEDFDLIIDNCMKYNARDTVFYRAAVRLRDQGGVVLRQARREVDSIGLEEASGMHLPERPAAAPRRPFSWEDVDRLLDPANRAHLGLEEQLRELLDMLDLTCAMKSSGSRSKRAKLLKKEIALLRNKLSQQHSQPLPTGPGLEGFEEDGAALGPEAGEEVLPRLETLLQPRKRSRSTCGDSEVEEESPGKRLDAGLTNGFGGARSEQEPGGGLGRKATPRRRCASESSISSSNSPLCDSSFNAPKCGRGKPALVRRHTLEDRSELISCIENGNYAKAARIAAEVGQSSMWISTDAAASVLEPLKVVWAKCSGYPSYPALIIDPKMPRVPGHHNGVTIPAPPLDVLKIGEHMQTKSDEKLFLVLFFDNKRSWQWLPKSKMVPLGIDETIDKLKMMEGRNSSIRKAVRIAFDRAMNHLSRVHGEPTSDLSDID
The experiment can be described thus: Alphascreen assay. Binding to BRD1A (domain start/stop: E556-A688) by alphascreen assay.

The term IC50 denotes the midpoint of a concentration-inhibition curve. Low readings indicate inhibition by little substance, high ones a need for much substance. Compound `COc1cc2c(cc1NS(=O)(=O)c1ccc(Br)cc1C)n(C)c(=O)n2C` [OF-1] returned an IC50 of 1.68 µM.
